Reference: patent US20240317721A1, “PYRAZOLYL DERIVATIVES AS INHIBITORS OF THE KRAS MUTANT PROTEIN” (NOVARTIS AG, priority 2021, published 2024)

Target: KRasG12C (M1-K169, biotinylated on the N-terminus) (Homo sapiens (Human), UniProt P01116, G12C)
Experiment: Covalent competition assay: scintillation proximity assay (SPA) quantifying covalent modification of KRASG12C
Assay type: binding
Details: competition with radiolabeled covalent probe (Compound B/Compound A), 2 hours incubation, 10 nM KRasG12C
Procedure, shortened: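 Scintillation proximity readout after streptavidin bead capture (30 min) of biotinylated KRasG12C(M1-K169):GDP, 10 nM final, which was covalently labelled over 2 h by 25 nM radio-probe plus 475 nM cold probe unless blocked by compound.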

| SMILES | IC50 [µM] |
| --- | --- |
| C=CC(=O)N1CC2(CC(n3nc(N4CC[C@@H](CN5CC6(C5)CS(=O)(=O)C6)CC4(C)C)c(-c4c(Cl)c(Cl)cc5[nH]ncc45)c3C)C2)C1 (single isomer, unassigned) [Example 248b] | 0.009 |
| C=CC(=O)N1CC2(CC(n3nc(N4CC[C@@H](CN5C[C@@H]6C[C@H]5CS6(=O)=O)CC4(C)C)c(-c4c(Cl)c(Cl)cc5[nH]ncc45)c3C)C2)C1 (single isomer, unassigned) [Example 249a] | > 5 |
| C=CC(=O)N1CC2(CC(n3nc(N4CC[C@@H](CN5C[C@@H]6C[C@H]5CS6(=O)=O)CC4(C)C)c(-c4c(Cl)c(Cl)cc5[nH]ncc45)c3C)C2)C1 (single isomer, unassigned) [Example 249b] | 0.013 |
| C=CC(=O)N1CC2(CC(n3nc(N4CC[C@@H](CN5CCn6cnnc6C5)CC4(C)C)c(-c4c(Cl)c(Cl)cc5[nH]ncc45)c3C)C2)C1 (single isomer, unassigned) [Example 250a] | 0.405 |
| C=CC(=O)N1CC2(CC(n3nc(N4CC[C@@H](CN5CCn6cnnc6C5)CC4(C)C)c(-c4c(Cl)c(Cl)cc5[nH]ncc45)c3C)C2)C1 (single isomer, unassigned) [Example 250b] | 0.008 |
| C=CC(=O)N1CC2(CC(n3nc(N4CC[C@@H](CN5CCN(CCO)C(=O)C5)CC4(C)C)c(-c4c(Cl)c(Cl)cc5[nH]ncc45)c3C)C2)C1 (single isomer, unassigned) [Example 251a] | > 5 |
| C=CC(=O)N1CC2(CC(n3nc(N4CC[C@@H](CN5CCN(CCO)C(=O)C5)CC4(C)C)c(-c4c(Cl)c(Cl)cc5[nH]ncc45)c3C)C2)C1 (single isomer, unassigned) [Example 251b] | 0.009 |
| C=CC(=O)N1CC2(CC(n3nc(N4CC[C@@H](CN(C)CC(=O)N5CCCC5)CC4(C)C)c(-c4c(Cl)c(Cl)cc5[nH]ncc45)c3C)C2)C1 (single isomer, unassigned) [Example 252a] | > 5 |
| C=CC(=O)N1CC2(CC(n3nc(N4CC[C@@H](CN(C)CC(=O)N5CCCC5)CC4(C)C)c(-c4c(Cl)c(Cl)cc5[nH]ncc45)c3C)C2)C1 (single isomer, unassigned) [Example 252b] | 0.006 |
| C=CC(=O)N1CC2(CC(n3nc(N4CC[C@@H](CN(CCO)CCOC)CC4(C)C)c(-c4c(Cl)c(Cl)cc5[nH]ncc45)c3C)C2)C1 (single isomer, unassigned) [Example 253a] | 1.5 |
| C=CC(=O)N1CC2(CC(n3nc(N4CC[C@@H](CN(CCO)CCOC)CC4(C)C)c(-c4c(Cl)c(Cl)cc5[nH]ncc45)c3C)C2)C1 (single isomer, unassigned) [Example 253b] | 0.008 |
| C=CC(=O)N1CC2(CC(n3nc(N4CC[C@@H](CN5CC6(CCS(=O)(=O)C6)C5)CC4(C)C)c(-c4c(Cl)c(Cl)cc5[nH]ncc45)c3C)C2)C1 (single isomer, unassigned) [Example 254a] | 2.6 |
| C=CC(=O)N1CC2(CC(n3nc(N4CC[C@@H](CN5CC6(CCS(=O)(=O)C6)C5)CC4(C)C)c(-c4c(Cl)c(Cl)cc5[nH]ncc45)c3C)C2)C1 (single isomer, unassigned) [Example 254b] | 0.008 |
| C=CC(=O)N1CC2(CC(n3nc(N4CC[C@@H](CN5CCN(C6COC6)CC5)CC4(C)C)c(-c4c(Cl)ccc5[nH]ncc45)c3C)C2)C1 (single isomer, unassigned) [Example 255a] | 3.3 |
| C=CC(=O)N1CC2(CC(n3nc(N4CC[C@@H](CN5CCN(C6COC6)CC5)CC4(C)C)c(-c4c(Cl)ccc5[nH]ncc45)c3C)C2)C1 (single isomer, unassigned) [Example 255b] | 0.084 |
| C=CC(=O)N1CC2(CC(n3nc(N4CC[C@@H](CN5CCN(CCOC)C(=O)C5)CC4(C)C)c(-c4c(Cl)c(Cl)cc5[nH]ncc45)c3C)C2)C1 (single isomer, unassigned) [Example 256a] | 1.3 |
| C=CC(=O)N1CC2(CC(n3nc(N4CC[C@@H](CN5CCN(CCOC)C(=O)C5)CC4(C)C)c(-c4c(Cl)c(Cl)cc5[nH]ncc45)c3C)C2)C1 (single isomer, unassigned) [Example 256b] | 0.01 |
| C=CC(=O)N1CC2(CC(n3nc(N4CC[C@@H](CN5CC6CC6(O)C5)CC4(C)C)c(-c4c(Cl)c(Cl)cc5[nH]ncc45)c3C)C2)C1 (single isomer, unassigned) [Example 257b] | 0.012 |
| C=CC(=O)N1CC2(CC(n3nc(N4CC[C@@H](CN5CC6CC6(O)C5)CC4(C)C)c(-c4c(Cl)c(Cl)cc5[nH]ncc45)c3C)C2)C1 (single isomer, unassigned) [Example 258b] | 0.022 |
| C=CC(=O)N1CC2(CC(n3nc(N4CC[C@@H](CN5CC6OCCN(C)C6C5)CC4(C)C)c(-c4c(Cl)c(Cl)cc5[nH]ncc45)c3C)C2)C1 (single isomer, unassigned) [Example 259a, 1-(6-(4-(5,6-dichloro-1H-indazol-4-yl)-3-((R)-2,2-dimethyl-4-(((4aR*,7aS*)-4-methylhexahydropyrrolo[3,4-b][1,4]oxazin-6(2H)-yl)methyl)piperidin-1-yl)-5-methyl-1H-pyrazol-1-yl)-2-azaspiro[3.3]heptan-2-yl)prop-2-en-1-one] | 0.779 |
| C=CC(=O)N1CC2(CC(n3nc(N4CC[C@@H](CN5CC6OCCN(C)C6C5)CC4(C)C)c(-c4c(Cl)c(Cl)cc5[nH]ncc45)c3C)C2)C1 (single isomer, unassigned) [Example 259b, 1-(6-(4-(5,6-dichloro-1H-indazol-4-yl)-3-((R)-2,2-dimethyl-4-(((4aR*,7aS*)-4-methylhexahydropyrrolo[3,4-b][1,4]oxazin-6(2H)-yl)methyl)piperidin-1-yl)-5-methyl-1H-pyrazol-1-yl)-2-azaspiro[3.3]heptan-2-yl)prop-2-en-1-one] | 0.01 |
| C=CC(=O)N1CC2(CC(n3nc(N4CC[C@@H](CN5CC6OCCN(C)C6C5)CC4(C)C)c(-c4c(Cl)c(Cl)cc5[nH]ncc45)c3C)C2)C1 (single isomer, unassigned) [Example 260a, 1-(6-(4-(5,6-dichloro-1H-indazol-4-yl)-3-((R)-2,2-dimethyl-4-(((4aR*,7aS*)-4-methylhexahydropyrrolo[3,4-b][1,4]oxazin-6(2H)-yl)methyl)piperidin-1-yl)-5-methyl-1H-pyrazol-1-yl)-2-azaspiro[3.3]heptan-2-yl)prop-2-en-1-one] | > 5 |
| C=CC(=O)N1CC2(CC(n3nc(N4CC[C@@H](CN5CC6OCCN(C)C6C5)CC4(C)C)c(-c4c(Cl)c(Cl)cc5[nH]ncc45)c3C)C2)C1 (single isomer, unassigned) [Example 260b, 1-(6-(4-(5,6-dichloro-1H-indazol-4-yl)-3-((R)-2,2-dimethyl-4-(((4aR*,7aS*)-4-methylhexahydropyrrolo[3,4-b][1,4]oxazin-6(2H)-yl)methyl)piperidin-1-yl)-5-methyl-1H-pyrazol-1-yl)-2-azaspiro[3.3]heptan-2-yl)prop-2-en-1-one] | 0.009 |
| C=CC(=O)N1CC2(CC(n3nc(N4CC[C@@H](CN5CCCC6CN(C)C(=O)C65)CC4(C)C)c(-c4c(Cl)c(Cl)cc5[nH]ncc45)c3C)C2)C1 (single isomer, unassigned) [Example 261a, (4aR*,7aR*)-1-(((R)-1-(1-(2-acryloyl-2-azaspiro[3.3]heptan-6-yl)-4-(5,6-dichloro-1H-indazol-4-yl)-5-methyl-1H-pyrazol-3-yl)-2,2-dimethylpiperidin-4-yl)methyl)-6-methyloctahydro-7H-pyrrolo[3,4-b]pyridin-7-one] | > 5 |
| C=CC(=O)N1CC2(CC(n3nc(N4CC[C@@H](CN5CCCC6CN(C)C(=O)C65)CC4(C)C)c(-c4c(Cl)c(Cl)cc5[nH]ncc45)c3C)C2)C1 (single isomer, unassigned) [Example 261b, (4aR*,7aR*)-1-(((R)-1-(1-(2-acryloyl-2-azaspiro[3.3]heptan-6-yl)-4-(5,6-dichloro-1H-indazol-4-yl)-5-methyl-1H-pyrazol-3-yl)-2,2-dimethylpiperidin-4-yl)methyl)-6-methyloctahydro-7H-pyrrolo[3,4-b]pyridin-7-one] | 0.015 |
| C=CC(=O)N1CC2(CC(n3nc(N4CC[C@@H](CN5CCCC6CN(C)C(=O)C65)CC4(C)C)c(-c4c(Cl)c(Cl)cc5[nH]ncc45)c3C)C2)C1 (single isomer, unassigned) [Example 262a, (4aR*,7aR*)-1-(((R)-1-(1-(2-acryloyl-2-azaspiro[3.3]heptan-6-yl)-4-(5,6-dichloro-1H-indazol-4-yl)-5-methyl-1H-pyrazol-3-yl)-2,2-dimethylpiperidin-4-yl)methyl)-6-methyloctahydro-7H-pyrrolo[3,4-b]pyridin-7-one] | > 5 |
| C=CC(=O)N1CC2(CC(n3nc(N4CC[C@@H](CN5CCCC6CN(C)C(=O)C65)CC4(C)C)c(-c4c(Cl)c(Cl)cc5[nH]ncc45)c3C)C2)C1 (single isomer, unassigned) [Example 262b, (4aR*,7aR*)-1-(((R)-1-(1-(2-acryloyl-2-azaspiro[3.3]heptan-6-yl)-4-(5,6-dichloro-1H-indazol-4-yl)-5-methyl-1H-pyrazol-3-yl)-2,2-dimethylpiperidin-4-yl)methyl)-6-methyloctahydro-7H-pyrrolo[3,4-b]pyridin-7-one] | 0.007 |
| C=CC(=O)N1CC2(CC(n3nc(N4CC[C@@H](CN5CCN6C(=O)N(C)CC6C5)CC4(C)C)c(-c4c(Cl)c(Cl)cc5[nH]ncc45)c3C)C2)C1 (single isomer, unassigned) [Example 263a] | > 5 |
| C=CC(=O)N1CC2(CC(n3nc(N4CC[C@@H](CN5CCN6C(=O)N(C)CC6C5)CC4(C)C)c(-c4c(Cl)c(Cl)cc5[nH]ncc45)c3C)C2)C1 (single isomer, unassigned) [Example 263b] | 0.008 |
| C=CC(=O)N1CC2(CC(n3nc(N4CC[C@@H](CN5CCN6C(=O)N(C)CC6C5)CC4(C)C)c(-c4c(Cl)c(Cl)cc5[nH]ncc45)c3C)C2)C1 (single isomer, unassigned) [Example 264a] | 0.351 |
